Data taken from PubChem BioAssay AID296 (DTP/NCI, 2004).
“And” between values parts separate entries of the source, which are not always exact repeats. Identical values can stand only once. Results filed as inconclusive are left out.

System: MX-1 breast xenograft, nude mice, tumor weight T/C
Assay: NCI In Vivo Anticancer Drug Screen. Data for tumor model Human Mammary Carcinoma MX-1 Xenograft (intrarenal inoculation) in NU/NU Swiss (nude) mice
Conditions: endpoint: mean tumor weight change, higher = larger tumour
Outline: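 Read-out: treated (T) over vehicle control (C) ratio of survival or tumor size. Dosing in animals carrying the transplanted tumor.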

Question: What does the source list for `O=C1N[C@@H]([C@H]2CC[C@H](Cl)CN2)C(=O)N[C@H]1[C@H]1CC[C@H](Cl)CN1`?
Answer: T/C (dose: 0.62 mg/kg/injection, schedule: Q01DX010 (sc), vehicle: water): 110 % of control; T/C (dose: 2.5 mg/kg/injection, schedule: Q01DX010 (sc), vehicle: water): 72 % of control and 73 % of control; T/C (dose: 2.5 mg/kg/injection, schedule: Q04DX003 (sc), vehicle: water): 11 % of control; T/C (dose: 5.0 mg/kg/injection, schedule: Q01DX010 (sc), vehicle: water): 30 % of control and 46 % of control; T/C (dose: 5.0 mg/kg/injection, schedule: Q04DX003 (sc), vehicle: water): -62 % of control; T/C (dose: 10.0 mg/kg/injection, schedule: Q04DX003 (sc), vehicle: water): -100 % of control; T/C (dose: 20.0 mg/kg/injection, schedule: Q04DX003 (sc), vehicle: water): -100 % of control

Question: Which results are given for `CCCCCCCC(=O)N/N=C(\CO)[C@]1(O)Cc2c(O)c3c(c(O)c2[C@@H](OC2CC(N)C(O)C(C)O2)C1)C(=O)c1c(OC)cccc1C3=O` (stereo partly drawn)?
Answer: T/C (dose: 25.0 mg/kg/injection, schedule: Q01DX010 (sc), vehicle: water): 227 % of control; T/C (dose: 50.0 mg/kg/injection, schedule: Q01DX010 (sc), vehicle: water): 230 % of control; T/C (dose: 100.0 mg/kg/injection, schedule: Q01DX010 (sc), vehicle: water): 370 % of control

Question: With `Nc1ncnc2c1ccn2C1OC(CO)C(O)C1O` (stereo not drawn) as the compound, how does the T/C (dose: 1.0 mg/kg/injection, schedule: Q01DX010 (sc), vehicle: Klucel (hydroxypropylcellulose) (HPC)) read?
Answer: 101 % of control

Question: And the T/C (dose: 2.0 mg/kg/injection, schedule: Q01DX010 (sc), vehicle: Klucel (hydroxypropylcellulose) (HPC))?
Answer: 157 % of control

Question: What about the T/C (dose: 4.0 mg/kg/injection, schedule: Q01DX010 (sc), vehicle: Klucel (hydroxypropylcellulose) (HPC)) of the same compound?
Answer: 75 % of control

Question: With `CS(=O)(=O)OCCN(CCOS(C)(=O)=O)c1ccc(C=O)cc1` as the compound, how does the T/C (dose: 25.0 mg/kg/injection, schedule: Q01DX010 (sc), vehicle: saline) read?
Answer: -67 % of control and -51 % of control

Question: For `Nc1ncnc2c1ncn2C1OC(COP(=O)(O)O)C(O)C1O` (stereo not drawn), which T/C (dose: 100.0 mg/kg/injection, schedule: Q01DX010 (ip), vehicle: saline) is on record?
Answer: 85 % of control

Question: What about the T/C (dose: 200.0 mg/kg/injection, schedule: Q01DX010 (ip), vehicle: saline) of the same compound?
Answer: 90 % of control

Question: What about the T/C (dose: 333.33 mg/kg/injection, schedule: Q04DX003 (sc), vehicle: saline) of the same compound?
Answer: 124 % of control

Question: And the T/C (dose: 400.0 mg/kg/injection, schedule: Q01DX010 (ip), vehicle: saline)?
Answer: 51 % of control

Question: And the T/C (dose: 666.65 mg/kg/injection, schedule: Q04DX003 (ip), vehicle: saline)?
Answer: 106 % of control

Question: And the T/C (dose: 666.65 mg/kg/injection, schedule: Q04DX003 (sc), vehicle: saline)?
Answer: 115 % of control

Question: What about the T/C (dose: 800.0 mg/kg/injection, schedule: Q01DX010 (ip), vehicle: saline) of the same compound?
Answer: 6 % of control

Question: And the T/C (dose: 1333.3 mg/kg/injection, schedule: Q04DX003 (ip), vehicle: saline)?
Answer: 49 % of control

Question: And the T/C (dose: 1333.3 mg/kg/injection, schedule: Q04DX003 (sc), vehicle: saline)?
Answer: 62 % of control

Question: And the T/C (dose: 1600.0 mg/kg/injection, schedule: Q01DX010 (sc), vehicle: saline)?
Answer: -36 % of control

Question: What about the T/C (dose: 2666.6 mg/kg/injection, schedule: Q04DX003 (ip), vehicle: saline) of the same compound?
Answer: 29 % of control

Question: What about the T/C (dose: 2666.6 mg/kg/injection, schedule: Q04DX003 (sc), vehicle: saline) of the same compound?
Answer: 76 % of control

Question: How did the T/C (dose: 100.0 mg/kg/injection, schedule: Q04DX003 (sc), vehicle: saline with Tween-80) turn out when `C=C1C(=O)OC2CC(C)C3C4OC4C(O)C3(C)C(O)C12` (stereo not drawn) was run?
Answer: 113 % of control

Question: And the T/C (dose: 200.0 mg/kg/injection, schedule: Q04DX003 (sc), vehicle: saline with Tween-80)?
Answer: 116 % of control

Question: What about the T/C (dose: 400.0 mg/kg/injection, schedule: Q04DX003 (sc), vehicle: saline with Tween-80) of the same compound?
Answer: 101 % of control

Question: For `Cc1ccc(NCCN(C)C)c2c(=O)c3cc(O)ccc3sc12`, which T/C (dose: 150.0 mg/kg/injection, schedule: Q04DX003 (sc), vehicle: Klucel (hydroxypropylcellulose) (HPC)) is on record?
Answer: 54 % of control

Question: What about the T/C (dose: 300.0 mg/kg/injection, schedule: Q04DX003 (sc), vehicle: Klucel (hydroxypropylcellulose) (HPC)) of the same compound?
Answer: 62 % of control

Question: What about the T/C (dose: 600.0 mg/kg/injection, schedule: Q04DX003 (sc), vehicle: Klucel (hydroxypropylcellulose) (HPC)) of the same compound?
Answer: 120 % of control

Question: And the T/C (dose: 1200.0 mg/kg/injection, schedule: Q04DX003 (sc), vehicle: Klucel (hydroxypropylcellulose) (HPC))?
Answer: 75 % of control

Question: For `NC(C/[N+]([O-])=N/O)C(=O)O` (stereo not drawn), which T/C (dose: 50.0 mg/kg/injection, schedule: Q01DX010 (sc), vehicle: saline) is on record?
Answer: 98 % of control

Question: What about the T/C (dose: 100.0 mg/kg/injection, schedule: Q01DX010 (sc), vehicle: saline) of the same compound?
Answer: 62 % of control

Question: With `O=C(O)CC(NC(=O)CP(=O)(O)O)C(=O)O.[NH-]C1CCCCC1[NH-].[Pt+2]` (stereo not drawn) as the compound, how does the T/C (dose: 12.5 mg/kg/injection, schedule: Q04DX003 (sc), vehicle: dextrose) read?
Answer: 175 % of control

Question: And the T/C (dose: 25.0 mg/kg/injection, schedule: Q04DX003 (sc), vehicle: dextrose)?
Answer: 43 % of control and 62 % of control

Question: What about the T/C (dose: 100.0 mg/kg/injection, schedule: Q04DX003 (sc), vehicle: dextrose) of the same compound?
Answer: 12 % of control
